Experimental data as given in patent US11214803B2, “Modulators of YAP1 expression” (Ionis Pharmaceuticals, Inc., priority 2019, dated 2022).

What was measured:
[1] = system: Yap1 mRNA; assay: Yap1 mRNA in SCC25 cells, RNA analysis (Example 25); assay type: cell-based, human; conditions: free uptake, 48 hours, RTS4814, normalized to actin-beta
Description: (§1) Modified oligonucleotides described in the studies above were tested at various doses in squamous cell carcinoma cell SCC25. A control oligonucleotide 792169 (a 3-10-3 cET gapmer with a full phosphorothioate backbone, […], designated herein as SEQ ID No.: 2940; is not complementary to any known human gene) was also tested.
Cultured SCC25 cells at a density of 5,000 cells per well were treated using free uptake with modified oligonucleotides diluted to concentrations described in the tables below. After approximately 48 hours, Yap1 mRNA levels were measured as previously described using the Human Yap1 primer-probe set RTS4814. Yap1 mRNA levels were normalized to actin-beta content, as measured by primer probe set RTS5002 (forward sequence […], designated herein as SEQ ID NO.: 20; reverse sequence […], designated herein as SEQ ID NO.: 21; probe sequence […], designated herein as SEQ ID NO.: 22). Results are presented in the tables below as percent control of the amount of Yap1 mRNA relative to untreated control cells (% UTC).

[2] = system: SCC25 cells; assay: Cell proliferation assay in SCC25 cells, CellTiter-Glo (Example 25); assay type: cell-based, human; conditions: free uptake, 144 hours
Description: as §1
Cultured SCC25 cells at a density of 1,000 cells/well were treated using free uptake with modified oligonucleotides diluted to concentrations described in the tables below. After approximately 144 hours, cell proliferation was measured using the luminescent cell viability CellTiter-Glo® 2.0 Assay (Promega). Results are presented in the tables below as percent control of the amount of luminescence in samples treated with modified oligonucleotides relative to untreated control cells (% UTC).

[3] = system: Yap1 mRNA; assay: Inhibition of human Yap1 mRNA in epidermoid carcinoma A-431 xenograft tumors (Example 27); assay type: in vivo; conditions: A-431 xenografts in NCr-Foxn1nu mice, 6-8 hours post final dose, relative to PBS
Description: An epidermoid carcinoma A-431 xenograft tumor model was used to evaluate activity of modified oligonucleotides targeted to human Yap1. Five million A-431 cells in 30% matrigel were implanted subcutaneously into the flanks of female NCr-Foxn1nu mice (from Taconic) at 4-6 weeks of age. When tumors reached an average volume of 40 mm^3, approximately two weeks post-implantation, groups of four mice each were administered at either 25 mg/kg or 50 mg/kg daily with modified oligonucleotides for […] (5 doses). Tumors were collected 6-8 hours post final dose and tested for Yap1 mRNA knockdown by RT-qPCR. Yap1 mRNA levels were measured as previously described using the Human Yap1 primer-probe set RTS4814. Yap1 mRNA levels were normalized to actin-beta content, as measured by primer probe set RTS5002. Results are presented in the tables below as percent control of the amount of Yap1 mRNA relative to PBS treated animals (% control).

[4] = system: Yap1 mRNA; assay: Inhibition of human Yap1 mRNA in squamous cell carcinoma CAL27 xenograft tumors (Example 28); assay type: in vivo; conditions: CAL27 xenografts in NCr-Foxn1nu mice, relative to PBS treated
Description: A squamous cell carcinoma CAL27 xenograft tumor model was used to evaluate activity of modified oligonucleotides targeted to human Yap1. Five million CAL27 cells in 30% matrigel were implanted subcutaneously into the flanks of female CrTac:NCr-Foxn1nu mice (from Taconic) at 4-6 weeks of age. Groups of four mice each were administered with either 15 mg/kg or 30 mg/kg of modified oligonucleotides daily for five days after tumor size had reached ˜100 mm^3 (about 3 weeks post implantation). Tumors were collected and tested for Yap1 mRNA knockdown by RT-qPCR. Yap1 mRNA levels were measured as previously described using the Human Yap1 primer-probe set RTS4814. Yap1 mRNA levels were normalized to actin-beta content, as measured by primer probe set RTS5002. Results are presented in the tables below as percent control of the amount of Yap1 mRNA relative to PBS treated […].

[5] = Cynomolgus monkey tolerability, body and organ weight measurements (Example 34); assay type: in vivo; conditions: cynomolgus monkeys, 35 mg/kg subcutaneously
How it was run: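 Monkeys given modified oligonucleotides, observed twice daily, and euthanized on day 86, about 48 h after the last dose. Terminal body weight taken before necropsy; organ weights measured.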

[6] = Cynomolgus monkey tolerability, pro-inflammatory proteins analysis, Complement C3 and CRP (Example 34); assay type: in vivo; conditions: cynomolgus monkeys, 35 mg/kg subcutaneously
How it was run: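 Inflammatory effects of oligonucleotides in cynomolgus monkeys were assessed using blood samples taken after an overnight fast. About 0.8 mL of blood per animal went into tubes without anticoagulant so serum could be separated. Complement C3 was measured on a Toshiba 120 FR NEO chemistry analyzer. C-Reactive Protein was measured alongside the liver-function clinical chemistry parameters.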

[7] = rat, in vivo, sc, 50 mg/kg
Description: Male Sprague-Dawley rats were maintained on a 12-hour light/dark cycle and fed ad libitum with Purina normal rat chow. Groups of 4 Sprague-Dawley rats each were weekly injected subcutaneously with 50 mg/kg of Ionis oligonucleotide for 6 weeks (total 7 doses). Forty-eight hours after the last dose, the rats were euthanized; and organs, urine and plasma were harvested for further analysis.
To evaluate the effect of Ionis oligonucleotides on kidney function, urinary levels of total protein and creatinine were measured using an automated clinical chemistry analyzer (Hitachi Olympus AU400c, Melville, N.Y.).

[8] = Cynomolgus monkey tolerability, urine analysis (Example 34); conditions: cynomolgus monkeys, 35 mg/kg subcutaneously, day 44
Description: Prior to the study, the monkeys were kept in quarantine during which the animals were observed daily for general health. The monkeys were 2-4 years old and weighed 2-4 kg. Eleven groups of 4 randomly assigned male cynomolgus monkeys each were injected subcutaneously with Ionis oligonucleotide or saline in a clock-wise rotation between four different sites on the back. Following loading doses on days 1, 3, 5 and 7, the monkeys were dosed once per week (on days 14, 21, 28, 35, and 42) with 35 mg/kg of Ionis oligonucleotide.
Food was removed overnight the day before fresh urine collection, but water was supplied. Fresh urine samples for urinalysis and urine chemistry were collected from all animals using a clean cage pan on wet ice (first in the morning) on day 44. Urinalysis/Urine Chemistry parameters creatinine (UCRE), microprotein (UTP), urine microalbumin (UALB), and protein/creatinine (P/C) ratio were measured using a Toshiba 120FR automated chemistry analyzer (Toshiba Co., Japan).

1198831 (CACTTTTACATTAGGA; chemically modified gapmer, further chemistry not given here) [compound 1198831]
Yap1 mRNA, % UTC ([1]; 0.04 μM): 63 % UTC
Yap1 mRNA, % UTC ([1]; 0.2 μM): 36 % UTC
Yap1 mRNA, % UTC ([1]; 1 μM): 16 % UTC
Yap1 mRNA, % UTC ([1]; 5 μM): 14 % UTC
cell proliferation (luminescence) % UTC ([2]; 0.04 μM): 88 % UTC
cell proliferation (luminescence) % UTC ([2]; 0.2 μM): 54 % UTC
cell proliferation (luminescence) % UTC ([2]; 1 μM): 25 % UTC
cell proliferation (luminescence) % UTC ([2]; 5 μM): 21 % UTC
Yap1 mRNA in tumors, % control ([3]; 25 mpk daily (5 doses)): 47 % control
Yap1 mRNA in tumors, % control ([3]; 50 mpk daily (5 doses)): 37 % control
Yap1 mRNA in tumors, % UTC ([4]; 15 mg/kg daily for five days): 70 % UTC
Yap1 mRNA in tumors, % UTC ([4]; 30 mg/kg daily for five days): 48 % UTC
Heart weight ([5]; necropsy): 11 g
Kidney weight ([5]; necropsy): 14 g
Liver with gallbladder weight ([5]; necropsy): 65 g
Spleen weight ([5]; necropsy): 4 g
Terminal Body Weight ([5]; prior to necropsy): 2788 g
Complement C3 ([6]; Day 42 (pre-dose)): 81 mg/dL
Complement C3 ([6]; day 42 (24 hr post-dose)): 81 mg/dL
CRP ([6]; day 44): 1.1 mg/L
URINE P/C ratio (total protein to creatinine ratio) [7]: 17
UALB [8]: 0.1 mg/dL
UCRE [8]: 46 mg/dL
UTP [8]: 13 mg/dL
